Reference: US20240261414A1, “FATTY ACID AMIDE HYDROLASE (FAAH) CLEAVABLE PRODRUGS OF BRAIN TARGETING ACTIVES AND COMBINATION WITH PERIPHERALLY RESTRICTED FAAH INHIBITORS” (Autobahn Therapeutics, Inc., priority 2021, published 2024)

Biological target: T1, recombinant human FAAH (rhFAAH) (Homo sapiens, UniProt O00519)
T1 construct: purchased Cayman Chemical (Ann Arbor, MI, USA)
T1 sequence (O00519 1-579): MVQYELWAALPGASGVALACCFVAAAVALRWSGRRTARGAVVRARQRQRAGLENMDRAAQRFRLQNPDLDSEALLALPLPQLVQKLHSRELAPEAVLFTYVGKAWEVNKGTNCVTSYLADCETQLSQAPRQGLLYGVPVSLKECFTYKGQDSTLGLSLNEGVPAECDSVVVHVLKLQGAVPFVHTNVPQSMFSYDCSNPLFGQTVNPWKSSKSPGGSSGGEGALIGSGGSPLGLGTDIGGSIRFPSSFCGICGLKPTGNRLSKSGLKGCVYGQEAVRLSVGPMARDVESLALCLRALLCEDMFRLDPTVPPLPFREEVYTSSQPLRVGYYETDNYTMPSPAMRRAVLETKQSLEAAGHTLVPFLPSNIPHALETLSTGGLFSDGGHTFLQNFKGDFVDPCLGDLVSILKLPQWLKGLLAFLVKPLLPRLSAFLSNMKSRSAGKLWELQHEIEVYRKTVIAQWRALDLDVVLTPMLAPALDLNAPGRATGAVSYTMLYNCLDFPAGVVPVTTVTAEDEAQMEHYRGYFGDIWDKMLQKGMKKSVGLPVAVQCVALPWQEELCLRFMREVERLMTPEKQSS
Assay: FAAH substrate evaluation (acid metabolite formation)
Assay type: biochemical
Details: 0.5 ng/L rhFAAH, 1 μM test compound, Tris-EDTA buffer pH 8.0, room temperature, 0-60 minutes
Description: Purified recombinant human FAAH (rhFAAH) was purchased from Cayman Chemical (Ann Arbor, MI, USA). The total volume for each incubation was 400 μL containing a final 0.5 ng/L rhFAAH, 1 μM test compound, 1.25% ethanol or 1 μM PF-3845 (FAAH inhibitor), and 0.1% bovine serum albumin in Tris-EDTA buffer at pH 8.0). The positive control was LL-341001. The incubation was conducted at the room temperature. At 0, 5, 15, 30 and 60 minutes, an aliquot of 30 μL reaction mixtures was removed and mixed with 300 μL acetonitrile containing 5 ng/mL terfenadine and 10 ng/mL tolbutamide as internal standards to quench the reaction. The resulting mixture was centrifuged at 4000 rpm, 4° C. for 15 minutes, and 100 μL supernatant was ready for LC-MS/MS analysis to measure the formation of acid metabolite.
Acquity Ultra Performance LC system from Waters was used for sample analysis. The chromatography was performed on a reverse phase Kinetex 2.6 μm C18 column, 2.1×30 mm, 100 Å. The mobile phase A comprised of 0.1% formic acid in water and mobile phase B comprised of 0.1% formic acid in acetonitrile with a 2-min run time at the flow rate of 0.8 mL/min for the acid metabolite from positive control or a 1.5 min run time at the flow rate of 0.9 mL/min for the acid metabolite of test compounds. The mass spectrometer (API-5500 and API Q Trap 4000 Applied Biosystems/MDS SCIEX Instruments, Framingham, MA, USA) was operated under ESI positive or negative ion MRM mode.
The formation of acid metabolite was monitored and quantified using one calibration point of 1 μM. The observed rate constant (ke) for the acid metabolite formation was calculated by plotting the metabolite concentration versus time of incubation with the slope being ke and is shown in Table 2.

Row | Compound | ke (observed rate constant for the acid metabolite formation)
1 | O=C(C[C@H]1CCc2c1[nH]c1ccc(OCc3ccc(C4CCCC4)c(C(F)(F)F)c3)cc21)Nc1cccnn1 [Compound 43] | B (ke is less than 1.0 and more than or equal to 0.1)
2 | Cc1noc(-c2ccc(CSCCC(=O)Nc3ccncc3)cc2)c1NC(=O)OC(C)c1ccccc1Cl (stereo not shown) [Compound 44] | B (ke is less than 1.0 and more than or equal to 0.1)
3 | Cc1noc(-c2ccc(CSCCC(=O)N[C@H]3C[C@H]3F)cc2)c1NC(=O)OC(C)c1ccccc1Cl (stereo partly shown) [Compound 45] | C (ke is less than 0.1 and more than 0)
4 | Cc1noc(-c2ccc(CSCCC(=O)NCCCF)cc2)c1NC(=O)O[C@H](C)c1ccccc1Cl [Compound 46] | C (ke is less than 0.1 and more than 0)
5 | O=C(C[C@H]1CCc2c1[nH]c1ccc(OCc3ccc(C4CCCC4)c(C(F)(F)F)c3)cc21)Nc1ccncc1 [Compound 47] | D (ke is 0)
6 | CCCCC[C@H](O)CC[C@@H]1[C@H]2Cc3cccc(OCC(=O)N[C@H]4C[C@@H]4F)c3C[C@H]2C[C@H]1O [Compound 48] | B (ke is less than 1.0 and more than or equal to 0.1)
7 | CCCCC[C@H](O)CC[C@@H]1[C@H]2Cc3cccc(OCC(=O)N[C@H]4C[C@H]4F)c3C[C@H]2C[C@H]1O [Compound 49] | C (ke is less than 0.1 and more than 0)
8 | O=C(Nc1ccnnc1)c1ccc2nc(-c3cc(Cl)cc(Cl)c3)oc2c1 [Compound 50] | A (ke is more than or equal to 1.0)
9 | COc1ccc(NC(=O)c2ccc3nc(-c4cc(Cl)cc(Cl)c4)oc3c2)cn1 [Compound 51] | A (ke is more than or equal to 1.0)

Further lines, results first:

Row | ke (observed rate constant for the acid metabolite formation) | Compound
10 | A (ke is more than or equal to 1.0) | O=C(Nc1cccnc1)c1ccc2nc(-c3cc(Cl)cc(Cl)c3)oc2c1 [Compound 52]
11 | A (ke is more than or equal to 1.0) | CCCCC[C@H](O)CC[C@@H]1[C@H]2Cc3cccc(OCC(=O)Nc4cccnn4)c3C[C@H]2C[C@H]1O [Compound 53]
12 | A (ke is more than or equal to 1.0) | CCCCC[C@H](O)CC[C@@H]1[C@H]2Cc3cccc(OCC(=O)Nc4ccncc4)c3C[C@H]2C[C@H]1O [Compound 55]
13 | D (ke is 0) | O=C(Nc1ccncc1)c1ccc2nc(-c3cc(Cl)cc(Cl)c3)oc2c1 [Compound 57]
